Assay results taken from patent US20210379056A1, “SUBSTITUTED PYRAZOLE FUSED RING DERIVATIVE, PREPARATION METHOD THEREFOR, AND APPLICATION THEREOF” (Applied Pharmaceutical Science, Inc., priority 2018, published 2021).
Like-named read-outs stand apart in the source and are kept apart here.

What was measured:
Ret wt = molecular target: T1, Ret wt (Homo sapiens, UniProt P07949); assay: HTRF kinase activity test, RET wild type; assay type: biochemical
T1 construct: purchased Invitrogen PV3082

RET (V804L), activated = molecular target: T2, RET (V804L), activated (Homo sapiens, UniProt P07949, V804L); assay: HTRF kinase activity test, RET V804L; assay type: biochemical; settings: Table 2
T2 construct: purchased Signalchem R02-12BG-10
Procedure: This test combined peptide substrates and a single proprietary monoclonal antibody with HTRF technology, which was a highly sensitive and stable technology for detecting molecular interactions of proteins. The enzyme phosphorylates the substrate, then the Eu-labeled antibody binds to the phosphorylated substrate, and streptavidin-XL665 binds to all substrates. The TR-FRET signal was generated by the HTRF principle. […] Based on this, the inhibitory effect was evaluated.
The other compounds were diluted 3-fold gradiently with DMSO from the 10 mM stock solution to a total of 10 concentrations respectively.
Adding 4 volumes of distilled water to 1 volume of enzyme buffer 5×; 5 mM MgCl2; 1 mM DTT.
b) centrifuging the compound plate for 1 minute at 1000 g.
c) sealing the test board.
f) adding 4 μl of 1× kinase buffer to each well of the test plate, centrifuging the sample plate at 1000 g for 30 seconds, and placing it at room temperature for 10 minutes.
g) preparing a solution of 5× TK-substrate-biotin ([…]) in kinase buffer and 5×ATP (50 μM) in kinase buffer respectively. […]
The inhibition rate % was calculated as follows:
Inhibition rate %=[1−(fluorescence signal value of test compound−fluorescence signal value of positive control)/(average ratio of negative control−average ratio of positive control)]*100%
Ratio: generated from the measured fluorescence signal value […]

TT Cell = assay: Cell inhibitory activity test (CCK8); assay type: cell-based; settings: Homo sapiens, TT, Table 3, 72 hours incubation
Summary of the method: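 Cells seeded at 4000/well, pre-incubated 24 h (37 °C, 5% CO2), then exposed to graded compound concentrations for 72 h. Viability read by CCK8 at 450 nm after 1-2 h; IC50 fitted from concentration-absorbance data.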

[1] = test system: RET wild-type, mutant and/or fusion-type; assay: Overall statement on RET inhibitory activity (summary of Table 3); settings: statement in words summarising Table 3
From the text: As shown in the above table, the example compounds of the present disclosure have improved inhibitory activity against RET wild-type, mutant and/or fusion-type.

[2] = Table 2, read-out: IC50 (nM) RET wt
[3] = Table 3, read-out: RET Enzyme (wild type) IC50

T1 sequence (P07949 29-1114): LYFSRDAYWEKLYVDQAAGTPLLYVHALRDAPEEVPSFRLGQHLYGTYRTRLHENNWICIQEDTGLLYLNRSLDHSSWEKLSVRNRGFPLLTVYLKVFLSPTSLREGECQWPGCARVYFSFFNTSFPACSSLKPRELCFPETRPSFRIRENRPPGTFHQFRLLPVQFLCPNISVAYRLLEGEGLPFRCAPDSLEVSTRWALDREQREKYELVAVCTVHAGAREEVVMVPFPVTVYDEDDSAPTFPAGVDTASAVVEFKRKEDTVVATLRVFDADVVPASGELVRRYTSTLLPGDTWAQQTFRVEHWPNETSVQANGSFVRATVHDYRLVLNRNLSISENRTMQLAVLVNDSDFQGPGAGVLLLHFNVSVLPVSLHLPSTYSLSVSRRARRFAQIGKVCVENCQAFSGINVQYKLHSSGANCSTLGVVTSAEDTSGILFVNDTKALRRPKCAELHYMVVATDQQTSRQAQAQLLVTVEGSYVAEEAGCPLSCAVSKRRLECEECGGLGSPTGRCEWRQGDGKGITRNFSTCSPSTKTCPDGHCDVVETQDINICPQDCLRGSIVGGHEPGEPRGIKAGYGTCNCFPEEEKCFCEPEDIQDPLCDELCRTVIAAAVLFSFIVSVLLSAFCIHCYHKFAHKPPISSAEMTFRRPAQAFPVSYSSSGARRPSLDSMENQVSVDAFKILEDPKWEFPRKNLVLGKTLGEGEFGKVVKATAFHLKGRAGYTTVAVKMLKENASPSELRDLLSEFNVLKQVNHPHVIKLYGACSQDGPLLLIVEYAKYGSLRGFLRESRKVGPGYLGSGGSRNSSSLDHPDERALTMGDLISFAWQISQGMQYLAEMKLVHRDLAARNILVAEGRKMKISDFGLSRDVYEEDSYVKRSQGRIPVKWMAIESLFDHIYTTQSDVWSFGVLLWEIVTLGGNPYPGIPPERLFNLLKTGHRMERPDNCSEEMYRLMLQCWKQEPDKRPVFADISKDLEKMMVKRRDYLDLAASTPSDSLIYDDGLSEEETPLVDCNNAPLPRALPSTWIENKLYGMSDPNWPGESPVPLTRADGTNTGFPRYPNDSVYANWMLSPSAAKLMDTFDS
T2 sequence (P07949 29-1114 V804L): as the sequence (P07949 29-1114) above, with V776L counted along it

IC50 (Ret wt; [2]) [nM]	IC50 (Ret wt; [3]) [nM]	IC50 (RET (V804L), activated) [nM]	Structure (SMILES)	IC50 (TT Cell) [nM]	inhibitory activity against RET wild-type, mutant and/or fusion-type [1]
0.418	< 1	0.0759	Cn1cc(-c2cc(-c3ccc(N4CCC(Cc5ccccn5)CC4)nc3)c3c(C#N)c(N)nn3c2)cn1 [APS070, 2-amino-6-(1-methyl-1H-pyrazol-4-yl)-4-(6-(4-(pyridin-2-yl-methyl)piperidin-1-yl)pyridin-3-yl)pyrazolo[1,5-a]pyridine-3-carbonitrile]	15.6	excellent activity
0.325	< 1	0.124	Cn1cc(-c2cc(-c3ccc(N4CCN(C(=O)Cc5ccc(F)cn5)CC4)nc3)c3c(C#N)c(N)nn3c2)cn1 [APS069, 2-amino-4-(6-(4-(2-(5-fluoropyridin-2-yl)acetyl)piperazin-1-yl)pyridin-3-yl)-6-(1-methyl-1H-pyrazol-4-yl)pyrazolo[1,5-a]pyridine-3-carbonitrile]	28.8	excellent activity
